From patent US20260263468A1 (Fundación Instituto de Investigación Sanitaria Fundación …, priority 2023, published 2026)

Assays:
C2C12 [1] = assay: cAMP concentration (ELISA); format: cell-based; details: myoblast, 1 μM, 5 minutes; control 0.58±0.13
Experimental: CAMP concentration was measured using the colorimetric cAMP ELISA kit following manufacture protocol for acetylated cell lysates (Cell Biolabs, San Diego, USA). Absorbance was measured at 450 nm using a microplate reader Tecan Spark 20M.
The CAMP signaling cascade has been linked to a delay in the onset of age-related muscle loss.

C2C12 [2] = assay: Western blot of PKA isoforms, pCREB, EPAC1/2; format: cell-based; details: 1 μM
Experimental: Cells were lysed with RIPA buffer and protein concentration was determined by BCA. […] Variations in intensity were expressed as % of basal (day 0) and expressed as mean±SEM. All results were calculated as a percentage of non-differentiated controls to minimize the intrinsic variation among different experiments.
To study the CAMP signaling pathway, we analyzed the expression of PKA on its three catalytic isoforms PKAα, PKAβ and PKAγ as well as EPAC1/2. […] Tenofovir reduced its phosphorylation (154±9% tenofovir vs 247±30% control at day 4, p<0.05, FIG. 3B).

C2C12 [3] = assay: AMPK phosphorylation assay kit (short time points); format: cell-based; details: myoblast, 1 μM, 10 min after switching to 2% HS; control 1.97±0.17
Experimental: Assay was performed with the AMPK phosphorilation assay kit (Abnova Corporation, Jhouzih St, Taiwan) as manufactor instructions and pAMPK was measured at λex/em 530/585 nm and 360/450 nm for total protein with Tecan Infinite.

[4] = tested on: K/B×N serum transfer-induced arthritis; assay: Motor activity tests in K/B×N serum transfer arthritis; format: in vivo, C57BL/6 mice
Experimental: Physical activity tests were performed to assess the motor development of the mice during the arthritic process as follows:
(§1) Ambulation in 12-week-old male C57BL/6 mice was recorded following the protocol described by Gibbs and Crosbie-Watson (2). Mice were placed in individual recording chambers and were allowed to freely move for 6 min. Distance traveled by each animal was determined using object tracking in Kinovea open-source video analysis software (V 0.9.5).
(§2) The coordinated motor function of the four limbs was evaluated with the rotarod test (Rotarod, Harvard Apparatus, USA) with male C57BL/6 mice at the age of 12-week-old. Burgos et al. protocol was followed with modifications (76). Mice were first familiarized with the rotarod by letting them stay for 120s on the rod rotating at 4 and 6 rotations per minute (rpm). Motor activity was assessed by training the mice with an accelerated rotarod protocol of three trials, during which the rod accelerated from 4 rpm to 40 rpm within 5 min.
as §1, with “(see references in ref. 44).” for “(2).”
The Grip Strength Meter (Ugo Basile, #47200) was utilized to assess the grip strength peak of the forelimbs. The mouse held onto a bar, and the highest force exerted during the pull was measured in grams using a digital force transducer. In the test, the mouse gripped a bar attached to the force gauge. Next, an investigator pulled the mouse's tail backward. The gauge recorded tension at the moment the mouse released its forepaws from the bar.
as §2, with “(see references in ref. 44).” for “(76).”

[5] = tested on: K/B×N serum transfer-induced arthritis; assay: Serum CRP ELISA and serum cytokine array; format: in vivo, C57BL/6J mice; details: arthritic mice + dipyridamole
Experimental: For this purpose, they performed an array of protein expression of pro- and anti-inflammatory cytokines and chemokines in serum by using the Mouse Cytokine Array Q1 (RayBiotech, EEUU) which, simultaneously, detects 20 cytokines. The cytokines concentration was measured by fluorescence using GenePix following manufacture protocol for serum samples.
CRP concentration was measured using the colorimetric Mouse CRP ELISA kit following manufacture protocol for serum samples (Crystal Chem, USA). Absorbance was measured at 450 nm using a microplate reader Tecan Spark 20M.
Serum CRP were determined by Mouse CRP ELISA Kit (Crystal Chem, #80634), according to the instructions of the manufacturer. Absorbance was measured at 450 nm using a microplate reader Tecan Spark 20M.
The cytokines concentration was measured by fluorescence using GenePix 4000B following manufacture protocol for serum and frozen samples. Serum samples were used at 2-fold sample dilution. Frozen gastronemius were crushed using a mortar and a pestle cooled with liquid nitrogen. Next, gastronemius were homogenized in a sonicator and the protein isolated in the supernatant quantified with BCA assay. We used 100 μL (1 mg/ml) of total gastronemius protein for cytokine and chemokine array assay.

[6] = tested on: K/B×N serum transfer-induced arthritis; assay: Atrogenes mRNA expression (RT-PCR) in gastrocnemius; format: in vivo, C57BL/6J mice; details: RA+Dipy
Experimental: Total RNA was isolated from crushed frozen gastrocnemius using TRIzol reagent (Roche Diagnostics, Barcelona, Spain) following manufacturer's instructions. A total of 1 μg RNA was reverse transcribed with a High Capacity cDNA Reverse Transcription Kit (Applied Biosystems, San Francisco, CA, USA) at […], including the following reagents, in the same reaction: RNase Inhibitor 1 U/μL, Random Hexamers […], MgCl2 5 mM, PCR buffer II 1× and dNTPs 1 mM. Relative quantification of gene expression was performed via real-time RT-PCR on a Step One Plus (Applied Biosystems) with Power UP SYBR Green MasterMix according to the manufacturer's protocol. The primers were provided from Sigma-Aldrich according to the primer bank at https://pga.mgh.harvard.edu/primerbank/. Gene expression levels were calculated with the ΔΔCt method.

[7] = Body composition by DXA scan; format: in vivo, C57BL/6J mice; details: healthy mice, dipy treatment alone, 2 weeks
Experimental: Previously to arthritis induction and sacrifice day, all mice underwent DXA scan. For DXA analysis, a Lunar PIXImus densitometer (software version 2.10) was calibrated using a hydroxyapatite phantom provided by the manufacturer (Lunar Corp, Madison, WI). Subsequently, mice were anesthetized and whole-body scans were conducted. Data analysis consisted of whole-body lean mass, fat mass, bone mineral density and bone mineral content. […] Previously to arthritis induction and sacrifice day, all mice underwent DXA scan. For DXA analysis, a Lunar PIXImus densitometer (software version 2.10) was calibrated using a hydroxyapatite phantom provided by the manufacturer (Lunar Corp, Madison, WI). Subsequently, mice were anesthetized and whole-body scans were conducted. Data analysis consisted of whole-body lean mass, fat mass, bone mineral density and bone mineral content.

[8] = mice, dipyridamole 25 mg/Kg/day with tenofovir; cited from earlier work

For `OCCN(CCO)c1nc(N2CCCCC2)c2nc(N(CCO)CCO)nc(N3CCCCC3)c2n1` [dipyridamole, 2,6-bis(Diethanolamino)-4,8-dipiperidinopyrimido[5,4-d]pyrimidine], the cAMP levels (C2C12 [1]) was 0.85±0.17, the “pCREB (% of basal)” value (C2C12 [2]; day 4, control 247±30%) was 275±73% and the EPAC2 protein expression (C2C12 [2]; within differentiation) was “decreased”. For the same compound, the AMPK activation (C2C12 [3]) was 2.89±0.29, the “Ambulatory activity: distance travelled” value ([4]; arthritic mice + dipyridamole, 2 weeks, arthritic 830±37, sham 1393±187) was 1203±53 cm and the “Two limb hanging test average score” value ([4]; arthritic mice + dipyridamole, arthritic 3.6±3.3, sham 12±3) was 9.8±2. For the same compound, the “Rotarod latency to fall” value ([4]; arthritic mice + dipyridamole, arthritic 43.3±5.4, sham 75.9±3.3) was 73.3±10.9 seg, the “Motor tests (ambulatory activity, grip strength, two limb hanging, rotarod)” value ([4]; healthy mice, dipy alone vs sham) was “behave similar” and the Serum IL-9 ([5]; arthritic 4.3±1.8) was 13.1 ± 2.6 pg/mL. For the same compound, the Serum VEGF ([5]; arthritic 90±13.1) was 221 ± 40.3 pg/mL, the Serum IL-10 ([5]; arthritic 117.6±5.2) was 166 ± 10 pg/mL and the “Serum CRP” value ([5]; arthritic 4098±560, sham 2861±893) was 3543 ± 586 ng/mL. For the same compound, the “Atrogin-1 mRNA expression” value ([6]; RA 5.40±1.37, Sham 1.94±0.33) was 0.29±0.09, the “Murf1 mRNA expression” value ([6]; RA 8.71±2.75, Sham 1.60±0.35) was 1.60±0.22 and the “Body composition (DXA)” value [7] was “did not produced alterations in body composition”. For the same compound, the “Body weight (tenofovir-induced loss)” value [8] was “recovered”.
